According to ChEMBL document CHEMBL1201862, “PubChem BioAssay data set” (2004):
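1) Cells in 96-well plates. 2) Compound, 48 h, 5 concentrations. 3) Linear interpolation between surrounding doses. 4) Unreached endpoint = highest concentration. The concentration for 50% growth inhibition is given as GI50.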 Calls of active or inactive are those of the source. Cut-off read from the data, not from the text of the source: active = GI50 up to about 1.1 µM and inactive = higher.

Key:
Assay in all cases: NCI anticancer screen, dose series, 48 h
NCI-H23 = tested on: NCI-H23
Hs-578T = tested on: Hs-578T
NCI-H460 = tested on: NCI-H460
Malme-3M = tested on: Malme-3M
ACHN = tested on: ACHN
HCT-116 = tested on: HCT-116
KM12 = tested on: KM12
OVCAR-8 = tested on: OVCAR-8
CAKI-1 = tested on: CAKI-1
MDA-MB-435 = tested on: MDA-MB-435
A498 = tested on: A498
M14 = tested on: M14
PC-3 = tested on: PC-3
UO-31 = tested on: UO-31
SK-OV-3 = tested on: SK-OV-3
OVCAR-5 = tested on: OVCAR-5
HOP-62 = tested on: HOP-62
SF-295 = tested on: SF-295
SNB-19 = tested on: SNB-19
786-0 = tested on: 786-0
SF-268 = tested on: SF-268
SK-MEL-2 = tested on: SK-MEL-2
LOX IMVI = tested on: LOX IMVI
SNB-75 = tested on: SNB-75
COLO 205 = tested on: COLO 205
HT-29 = tested on: HT-29
SW-620 = tested on: SW-620
MDA-N = tested on: MDA-N
RXF 393 = tested on: RXF 393
HOP-92 = tested on: HOP-92
SF-539 = tested on: SF-539
HCT-15 = tested on: HCT-15
HCC 2998 = tested on: HCC 2998
SK-MEL-28 = tested on: SK-MEL-28
NCI/ADR-RES = tested on: NCI/ADR-RES
RPMI-8226 = tested on: RPMI-8226
SK-MEL-5 = tested on: SK-MEL-5
SR = tested on: SR
OVCAR-4 = tested on: OVCAR-4
MCF7 = tested on: MCF7
UACC-62 = tested on: UACC-62
HL-60 = tested on: HL-60
CCRF-CEM = tested on: CCRF-CEM
NCI-H226 = tested on: NCI-H226
IGROV-1 = tested on: IGROV-1
U-251 = tested on: U-251
A549 = tested on: A549
BT-549 = tested on: BT-549
T47D = tested on: T47D
OVCAR-3 = tested on: OVCAR-3
TK-10 = tested on: TK-10
DU-145 = tested on: DU-145
SN12C = tested on: SN12C
MDA-MB-231 = tested on: MDA-MB-231
K562 = tested on: K562
MOLT-4 = tested on: MOLT-4
UACC-257 = tested on: UACC-257
EKVX = tested on: EKVX
NCI-H522 = tested on: NCI-H522

Measured: GI50

CC1(c2cccc(C(F)(F)F)c2)CC(c2cccc(C(F)(F)F)c2)=C(C#N)C(=C(C#N)C#N)N1 (centres undefined)
16.4 µM: HCT-15
inactive: NCI-H23 19.3 µM | Hs-578T 17.3 µM | NCI-H460 19.3 µM | Malme-3M 17.1 µM | ACHN 17.2 µM | HCT-116 15.2 µM | KM12 16.5 µM | OVCAR-8 17.5 µM | CAKI-1 18.7 µM | MDA-MB-435 18.1 µM | A498 18.1 µM | M14 20.2 µM | PC-3 19.4 µM | UO-31 18.6 µM | SK-OV-3 16.1 µM | OVCAR-5 18.2 µM | HOP-62 17.1 µM | SF-295 16.6 µM | SNB-19 19.4 µM | 786-0 17 µM | SF-268 15 µM | SK-MEL-2 19.6 µM | LOX IMVI 17.7 µM | SNB-75 19.3 µM | COLO 205 14.6 µM | HT-29 18.8 µM | SW-620 15 µM | MDA-N 18 µM | RXF 393 16.8 µM | HOP-92 2.3 µM | SF-539 17.4 µM | HCC 2998 17.2 µM | SK-MEL-28 16 µM | NCI/ADR-RES 19.5 µM | RPMI-8226 16.4 µM | SK-MEL-5 15.2 µM | SR 12.6 µM | OVCAR-4 16 µM | MCF7 16.7 µM | UACC-62 16.7 µM | HL-60 15.5 µM | CCRF-CEM 2.88 µM | NCI-H226 18.2 µM | IGROV-1 16.6 µM | U-251 18.4 µM | A549 19.5 µM | BT-549 18.7 µM | T47D 17 µM | OVCAR-3 11.9 µM | TK-10 16.8 µM | DU-145 17.2 µM | SN12C 18.1 µM | MDA-MB-231 23 µM | K562 15.2 µM | MOLT-4 19.2 µM | UACC-257 15.9 µM | EKVX 17.9 µM

CN(C)/C=N/c1ccc2[nH]c3ccccc3c2c1
20.6 µM: HCT-15
inactive: NCI-H23 49.3 µM | Hs-578T 38.5 µM | Malme-3M 22.1 µM | ACHN 48.1 µM | HCT-116 34.6 µM | OVCAR-8 37.7 µM | CAKI-1 35.2 µM | MDA-MB-435 18 µM | A498 20.9 µM | M14 15.1 µM | PC-3 36.1 µM | UO-31 29 µM | SK-OV-3 61.7 µM | OVCAR-5 28.4 µM | HOP-62 23.2 µM | SF-295 31.3 µM | SNB-19 > 100 µM | 786-0 25.1 µM | SF-268 64.6 µM | SK-MEL-2 16.7 µM | LOX IMVI 15.7 µM | SNB-75 37.7 µM | COLO 205 16.6 µM | HT-29 19.8 µM | MDA-N 18.2 µM | RXF 393 25.8 µM | HOP-92 15.8 µM | SF-539 20.8 µM | SK-MEL-28 23.3 µM | NCI/ADR-RES 53.7 µM | RPMI-8226 22.6 µM | SK-MEL-5 16.7 µM | SR 12.2 µM | OVCAR-4 > 100 µM | MCF7 32.1 µM | UACC-62 21 µM | HL-60 18.1 µM | CCRF-CEM 30.9 µM | NCI-H226 27.4 µM | IGROV-1 43.5 µM | U-251 28.8 µM | A549 39.7 µM | BT-549 > 100 µM | T47D 30.6 µM | OVCAR-3 > 100 µM | TK-10 28.2 µM | DU-145 > 100 µM | SN12C 52.4 µM | MDA-MB-231 19.8 µM | K562 20.4 µM | MOLT-4 27.3 µM | UACC-257 15.9 µM | EKVX 65 µM

Cn1c2cn[nH]c(=O)c2c2ccc3ccccc3c21
23.9 µM: HCT-15
inactive: NCI-H23 21.6 µM | Hs-578T 11.9 µM | NCI-H460 20 µM | Malme-3M > 100 µM | ACHN 16.9 µM | HCT-116 29 µM | KM12 > 100 µM | OVCAR-8 41.6 µM | CAKI-1 42.4 µM | MDA-MB-435 69.7 µM | A498 9.04 µM | M14 > 100 µM | PC-3 51.2 µM | UO-31 16.1 µM | SK-OV-3 28.8 µM | OVCAR-5 > 100 µM | HOP-62 13.1 µM | SF-295 18.9 µM | SNB-19 26.5 µM | 786-0 7.62 µM | SF-268 22.6 µM | SK-MEL-2 18.2 µM | LOX IMVI 21.9 µM | SNB-75 16.1 µM | COLO 205 23.9 µM | HT-29 37.3 µM | SW-620 52.6 µM | MDA-N > 100 µM | RXF 393 19.3 µM | HOP-92 10.6 µM | SF-539 48.4 µM | NCI/ADR-RES 84.1 µM | RPMI-8226 60.3 µM | SK-MEL-5 31.5 µM | SR 35.9 µM | OVCAR-4 58.1 µM | MCF7 30.2 µM | UACC-62 22.4 µM | HL-60 85.5 µM | NCI-H522 16.9 µM | CCRF-CEM 59.2 µM | NCI-H226 36.1 µM | IGROV-1 11.7 µM | U-251 19.9 µM | A549 27.7 µM | BT-549 42.9 µM | T47D > 100 µM | OVCAR-3 > 100 µM | TK-10 49.8 µM | DU-145 59.3 µM | SN12C 44.6 µM | MDA-MB-231 15.4 µM | K562 86.1 µM | MOLT-4 27.2 µM | UACC-257 > 100 µM | EKVX 3.6 µM
